Experimental data published in US12030908B2, “Antimicrobial compounds, compositions, and uses thereof” (Lakewood Amedex, Inc., priority 2017, dated 2024).
Several values for one entry are separate records, joined by “and”; a condition that tells them apart may be missing. Identical values can stand only once. Entries after “also recorded” stand apart in the source; their conditions may differ.

How the values were obtained:
pKa measurement = format: physicochemical
[1] = test system: Acinetobacter baumannii (ATCC 19606); assay: Neutropenic lung infection model in mice, lung bacterial burden (Example 25); format: in vivo, BALB/c mice; conditions: for antibacterial effect on A. baumannii vs day 3 vehicle control: 10% solution aerosol once daily, p<0.05; for Log10 CFU/g lung Mean ± SD / Log10 CFU/g lung: Nu-8 (10%), aerosol, 2 h post end of treatment; for Log10 CFU/g lung Mean ± SD: group mean; for Log10 CFU/g lung: individual animals
Protocol: Neutropenic, BALB/c female mice, all of which were from 6 to 8 weeks of age, were infected intranasally with ˜2×10^7 CFU/lung Acinetobacter baumannii (ATCC 19606). Twenty-four hours after infection; animals were treated by aerosol route with vehicle or Nu-8 (10% solution), once daily for one, three, and five days. Following treatment for 1, 3, and 5 days, animals were terminated, and lung tissues were collected to determine the bacterial load.
The mice were separated into cohorts in accordance with Table 26.
On day −4 (four days before the date of infection), each mouse was dosed with a single intraperitoneal injection of cyclophosphamide equivalent to 150 mg/kg and returned to its cage. On day −1 (one day before infection) each mouse received a dose equivalent to 100 mg/kg of cyclophosphamide.
On day −1, an aliquot from glycerol stocks of Acinetobacter baumannii (ATCC19606) was thawed, inoculated into fresh Casein Soybean Digest Broth (CSDB) and incubated overnight at 37° C.
On the day of infection (Day 0), the overnight culture was checked, centrifuged and the cells were pelleted and resuspended in sterile normal saline to obtain approximately 10^9 CFU/ml Acinetobacter baumannii, which was used for infection. The inoculum was serially diluted ten-fold in sterile CSDB and 0.05 ml of six dilutions was plated onto CSD Agar plates to determine the viable count (CFU/ml) of inoculum.
Animals were divided into different groups as specified in the experimental design (Table 26). Infections were conducted in a biological safety cabinet, with appropriate personnel protection. Mice were placed into an induction chamber and anesthesia was induced by exposing the animals to 3%-5% Isoflurane in an oxygen flow set at approximately 1 liter per minute (LPM). Once the animals were in a sufficiently deep plane of anesthesia, they were removed and infected. Infection was done by instilling 0.02 ml (containing ˜1×10^9 CFU/ml) of the inoculum; 10 μl was instilled into each nostril of the anesthetized animal intra-nasally using a 10 μl pipette (˜2×10^7 CFU/animal). A gentle shaking/mixing of inoculum between two animals was followed for uniform distribution.
The vehicle used for the test compound was saline (0.9% NaCl adjusted to pH 3.5 with citric acid). To make 10% Nu-8 solution, 15 g of compound was weighed and dissolved in 145 ml of 0.9% NaCl; pH of solution was adjusted to 3.5 by adding 2.4 ml of citric acid solution and to this solution, 2.6 ml of 0.9% NaCl solution was added to make up the volume to 150 ml. The same procedure was followed on day 2, 3, 4 and 5.
Treatment was initiated twenty-four hours post infection. Test formulations were administered by aerosol route with nose-only apparatus connected to a nebulizer (Omron Ne-C28 Compressor Nebulizer with a volume capacity of 15 ml, Particle size 3 μm, nebulization rate: 0.5 ml/min, and Aerosol output rate: 0.09 ml/min). The formulation prepared previously was placed into the nebulizer fluid cup; animals were placed in the nose-only apparatus and the entire system was placed inside a Class II Biosafety Cabinet. Animals received nebulization for 20 min, followed by a 30-minute rest and then an additional 20-minute exposure at the same dose concentration (the flow rate and percentage of test material available at the inhalation port was 16% of the initial concentration in the nebulizer if the test compound is in solution).
Groups of animals were euthanized at 2 h post treatment, as specified in the experimental design, by an overdose of CO2 in an appropriate exposure chamber.
The euthanized animals were dipped into 70% ethanol for surface decontamination. Lungs were aseptically excised, weighed, placed in a 2 ml centrifuge tube containing 1 ml of sterile CSDB broth, and homogenized (Omni Tip (220THB handheld)). Serial ten-fold dilutions of the lung homogenates were prepared in sterile CSDB broth and 0.05 ml of four dilutions for each lung was plated onto CSDA agar plates. […]

[2] = test system: Aspergillus fumigatus (ATCC13073); assay: Individual mouse clinical signs (animal condition) in the Aspergillus fumigatus lung infection model (Example 24); format: in vivo, BALB/c mice; set-up: key: NAD = no abnormality detected
Haemophilus influenzae = assay: MIC at pH 3.5, CLSI, Mueller-Hinton broth; format: cell-based; conditions: 5 isolates
[3] = test system: Acinetobacter baumannii (ATCC 19606); assay: Clinical signs in the Acinetobacter baumannii lung infection model (Example 25); format: in vivo, BALB/c mice; conditions: treated groups vs control mice
Excerpt: There was a >3 Log10) CFU/g lung decrease following treatment for 5 days when compared to the vehicle on day 1.

[4] = Body weight in the Acinetobacter baumannii lung infection model (Example 25); format: in vivo, BALB/c mice
[5] = Part C, 1×10^3 conidia/animal, Nu-8 (10%), 3 doses, once daily for 3 days, aerosol, individual animals
[6] = Part D, 1×10^2 conidia/animal, Nu-8 (10%), 5 doses, once daily for 5 days, individual animals
[7] = Nu-8 (10%), 3 doses, once daily for 3 days
[8] = Nu-8 (10%), 5 doses, once daily for 5 days

CCCCOP(=O)(O)OC[C@H]1O[C@@H](n2ccc(N)nc2=O)C[C@@H]1OP(=O)(O)OCCCC [Nu-8, sodium ((2R,3S,5R)-5-(4-amino-2-oxopyrimidin-1(2H)-yl)-3-((butoxyoxidophosphor-yl)oxy)tetrahydrofuran-2-yl)methyl butyl phosphate]
pKa (pKa measurement): 3.20
antibacterial effect on A. baumannii vs day 3 vehicle control ([1]; day 3): significant antibacterial effect; also recorded: significant antibacterial activity
antibacterial effect on A. baumannii vs day 3 vehicle control ([1]; day 5): significant antibacterial effect; also recorded: significant antibacterial activity
activity vs vehicle control on day 1 ([1]; 10% solution aerosol, day 1, p>0.05): No significant activity
Log10 CFU/g lung Mean ± SD ([1]; 3 doses, once daily for 3 days, p < 0.05 vs corresponding vehicle control): 4.01 ± 0.72 Log10 CFU/g lung
Log10 CFU/g lung ([1]; 3 doses, once daily for 3 days): 4.75 Log10 CFU/g lung and 3.02 Log10 CFU/g lung and 4.34 Log10 CFU/g lung and 3.19 Log10 CFU/g lung and 4.29 Log10 CFU/g lung and 4.46 Log10 CFU/g lung
Log10 CFU/g lung Mean ± SD ([1]; 5 doses, once daily for 5 days, p < 0.05 vs day 3 vehicle control): 2.69 ± 0.16 Log10 CFU/g lung
Log10 CFU/g lung ([1]; 5 doses, once daily for 5 days): 2.76 Log10 CFU/g lung and 2.51 Log10 CFU/g lung and 2.71 Log10 CFU/g lung and 2.62 Log10 CFU/g lung and 2.96 Log10 CFU/g lung and 2.60 Log10 CFU/g lung
Log10 CFU/g lung Mean ± SD ([1]; single dose): 5.67 ± 0.47 Log10 CFU/g lung
Log10 CFU/g lung ([1]; single dose): 5.51 Log10 CFU/g lung and 6.03 Log10 CFU/g lung and 5.54 Log10 CFU/g lung and 6.30 Log10 CFU/g lung and 5.72 Log10 CFU/g lung and 4.93 Log10 CFU/g lung
decrease in lung burden compared to the vehicle on day 1 ([1]; following treatment for 5 days): > 3 Log10) CFU/g lung
Animal Condition Day 1 ([2]; Part A, 3 doses, once daily for 3 days, individual animals 19-24): Normal
Animal Condition Day 1 ([2]; Part A, 5 doses, once daily for 5 days, individual animals 25-30): Normal
Animal Condition Day 1 ([2]; Part B, 3 doses, once daily for 3 days, individual animals 23-30): NAD
Animal Condition Day 1 ([2]; Part B, single dose, individual animals 15-22): NAD
Animal Condition Day 1 [2, 5]: NAD
Animal Condition Day 2 [2, 5]: Animal dull
Animal Condition Day 3 [2, 5]: Animal dull; also recorded: Moribund
Animal Condition Day 1 [2, 6]: NAD
Animal Condition Day 2 [2, 6]: NAD
Animal Condition Day 3 [2, 6]: NAD
Animal Condition Day 4 [2, 6]: NAD
Animal Condition Day 5 [2, 6]: NAD
Nu-8 MIC (mg/mL) at pH 3.5 (Haemophilus influenzae): 4.69-9.38 mg/mL
piloerection, loss of grooming and respiratory symptoms [3]: decreased piloerection, nasal discharge and gasping symptoms; also recorded: a marked decrease was observed in treated groups
Body Weight (g) Mean ± SD Day 0 [4, 7]: 25.0 ± 0.6 g
Body Weight (g) Mean ± SD Day 1 [4, 7]: 24.3 ± 0.5 g
Body Weight (g) Mean ± SD Day 3 [4, 7]: 23.7 ± 0.5 g
Body Weight (g) Mean ± SD Day 0 [4, 8]: 24.8 ± 0.8 g
Body Weight (g) Mean ± SD Day 1 [4, 8]: 24.0 ± 0.6 g
Body Weight (g) Mean ± SD Day 2 ([4]; Nu-8 (10%), 5 doses, once daily for 5 days, Day 2): 23.3 ± 0.5 g
Body Weight (g) Mean ± SD Day 3 [4, 8]: 23.2 ± 0.8 g
Body Weight (g) Mean ± SD Day 4 ([4]; Nu-8 (10%), 5 doses, once daily for 5 days, Day 4): 23.3 ± 1.0 g
Body Weight (g) Mean ± SD Day 5 ([4]; Nu-8 (10%), 5 doses, once daily for 5 days, Day 5): 24.0 ± 0.6 g
Body Weight (g) Mean ± SD Day 0 ([4]; Nu-8 (10%), single dose): 24.8 ± 0.8 g
Body Weight (g) Mean ± SD Day 1 ([4]; Nu-8 (10%), single dose): 24.0 ± 0.9 g
change in mean body weights ([4]; vehicle and treatment groups): Decreases in mean body weights were observed
